From publication PMC10436493, “Unveiling the antitumor potential of novel N-(substituted-phenyl)-8-methoxycoumarin-3-carboxamides as dual inhibitors of VEGFR2 kinase and cytochrome P450 for targeted treatment of hepatocellular carcinoma” (Frontiers in Chemistry, 2023)
Where two headings read alike, the source gives them in different places.

What was measured:
CYP2D6 = CYP2D6 (Homo sapiens, UniProt P10635)
Experimental: Human cells, obtained from the American Type Culture Collection (ATCC), were cultivated in RPMI medium (Invitrogen/Life Technologies). The medium was supplemented with 1% penicillin-streptomycin, 10 μg/ml of insulin (Sigma), and to support cell growth and 10% Fetal Bovine Serum (FBS) (Hyclone) viability. […] Cells were seeded into a 96-well plate at a density of 1.2–1.8 × 10,000 cells/well in a volume of 100 μL of complete growth medium. […] Each concentration was tested in triplicate. A control well with only complete growth medium was included as a negative control. […] The culture media was quickly withdrawn, and the cultured cells were rinsed with PBS. […] After the incubation, the fluorescence intensity of the converted product was measured using a FLx800™ Fluorescence Microplate Reader at the excitation wavelength of 390 nm and the emission wavelength of 488 nm. […] The data were analyzed for statistical significance and presented as mean ± standard deviation (SD) from triplicate measurements.

VEGFR-2 = target: T1, VEGFR-2 (Homo sapiens, UniProt P35968); assay: VEGFR-2 ELISA assay; format: cell-based
T1 construct: ability to target the VEGFR-2 receptor inHep-G2 cells; endogenous in cells; host or cells: Hep-G2
T1 sequence (P35968 20-1356): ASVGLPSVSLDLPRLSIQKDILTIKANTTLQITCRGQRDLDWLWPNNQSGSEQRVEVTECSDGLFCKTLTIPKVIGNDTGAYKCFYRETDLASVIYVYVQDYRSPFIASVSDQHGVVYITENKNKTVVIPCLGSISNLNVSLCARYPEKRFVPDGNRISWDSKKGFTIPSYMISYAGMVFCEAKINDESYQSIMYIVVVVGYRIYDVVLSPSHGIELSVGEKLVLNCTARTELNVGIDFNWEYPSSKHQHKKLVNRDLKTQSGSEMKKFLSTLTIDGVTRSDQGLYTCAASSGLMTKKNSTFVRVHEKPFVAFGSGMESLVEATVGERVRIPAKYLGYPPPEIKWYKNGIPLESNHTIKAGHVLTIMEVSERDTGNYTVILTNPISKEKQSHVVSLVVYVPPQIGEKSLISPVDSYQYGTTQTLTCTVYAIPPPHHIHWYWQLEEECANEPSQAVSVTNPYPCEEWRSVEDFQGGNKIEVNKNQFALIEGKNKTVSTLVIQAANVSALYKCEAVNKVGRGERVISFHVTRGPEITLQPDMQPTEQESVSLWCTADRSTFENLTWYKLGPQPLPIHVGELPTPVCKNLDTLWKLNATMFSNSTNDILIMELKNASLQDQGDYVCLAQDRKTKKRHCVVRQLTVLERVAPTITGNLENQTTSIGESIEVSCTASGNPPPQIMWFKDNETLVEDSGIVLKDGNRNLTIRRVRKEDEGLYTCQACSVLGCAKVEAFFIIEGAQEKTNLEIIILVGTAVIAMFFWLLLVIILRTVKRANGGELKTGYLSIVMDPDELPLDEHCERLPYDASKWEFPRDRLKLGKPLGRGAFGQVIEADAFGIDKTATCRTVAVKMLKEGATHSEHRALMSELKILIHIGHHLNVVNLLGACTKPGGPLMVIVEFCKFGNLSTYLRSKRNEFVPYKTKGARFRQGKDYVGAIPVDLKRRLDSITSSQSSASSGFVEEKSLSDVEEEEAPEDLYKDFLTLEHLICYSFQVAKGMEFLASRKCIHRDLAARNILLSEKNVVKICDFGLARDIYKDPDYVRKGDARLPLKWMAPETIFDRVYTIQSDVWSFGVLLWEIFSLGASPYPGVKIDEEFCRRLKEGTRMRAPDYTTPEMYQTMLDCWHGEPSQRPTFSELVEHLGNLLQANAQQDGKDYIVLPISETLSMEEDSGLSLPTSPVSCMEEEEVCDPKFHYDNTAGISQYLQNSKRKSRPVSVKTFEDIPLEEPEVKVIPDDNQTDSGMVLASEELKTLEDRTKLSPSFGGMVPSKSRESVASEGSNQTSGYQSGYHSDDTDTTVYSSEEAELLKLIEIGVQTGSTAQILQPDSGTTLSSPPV
Experimental: A 96-well plate was used for the assay, and each well was filled with a specific volume of the tested molecules and standard concentrations. The wells were coated with an immobilized antibody that specifically binds to VEGFR-2. After incubation, the wells were washed to remove unbound molecules, and biotinylated anti-human VEGFR-2 antibody was added to the wells. This biotinylated antibody specifically binds to VEGFR-2 that is captured by the immobilized antibody. Following another round of washing, a solution of conjugated streptavidin, which binds to the biotinylated antibody, was added to the wells. […] During this incubation, the bound conjugated streptavidin transformed the substrate into a colorful product. After terminating the reaction with an inhibitor solution, the optical density of the produced color was instantly determined at 450 nm with a spectrophotometer.

HL-7702 normal cell line = assay: MTT cytotoxicity assay on normal liver cells; format: cell-based; details: Homo sapiens, L02, 24 h treatment
Experimental: Following this initial incubation period, the cells were exposed to varying concentrations of the synthesized compounds. The concentrations may have ranged from a lower to higher dose, depending on the experimental design. The molecules were dissolved in an appropriate solvent, DMSO, to obtain the desired concentrations. Control wells with no drug treatment were also included. […] The duration of the incubation may have varied depending on the specific experimental requirements. At the end of the 24-h treatment, (3-(4,5-dimethylthiazol-2-yl)-2,5-diphenyltetrazolium bromide) MTT dye was added to each well. MTT is a yellow tetrazolium salt that is utilized by metabolically active cells and converted into purple formazan crystals by mitochondrial enzymes in viable cells. […] DMSO is a common solvent used to dissolve the formazan crystals and extract the intracellular purple product. The plate was then subjected to colorimetric measurement using an ELISA plate reader at a wavelength of 570 nm. The intensity of the purple color is proportional to the number of viable cells and reflects the growth condition of the cells in each well. The results were analyzed by calculating the percentage of cell viability or cell growth inhibition compared to the control wells. […]

HepG-2 cells [1] = assay: Cell cycle analysis by DNA flow cytometry (PI staining); format: cell-based, human; details: HepG-2, compound at IC50 (0.75 µM), 24 h
Experimental: Based on this promising activity, compound 7 was selected for further evaluation to assess its effect on the cell cycle profile in HepG-2 cells. To evaluate the cell cycle, a biparametric cytofluorimetric analysis was conducted on HepG-2 cells treated with compound 7 at its IC50 concentration for a duration of 24 h. Propidium iodide (PI) was used as the staining agent for this analysis. (Figure 5). […] Similarly, the percentage of cells in the G2/M phase decreased from 11.46% in the control group to 6.4% after treatment with compound 7. In contrast, there was a notable increase in the percentage of cells in the S phase after treatment with Compound 7. […] These findings indicate that the treatment of HepG-2 cells with compound 7 leads to cell cycle arrest specifically in the S phase. This is evident from the decrease in the proportion of cells in the G1 and G2/M phases, accompanied by an increase in the percentage of cells residing in the S phase. Cell cycle arrest is a widely recognized mechanism utilized by anticancer agents to impede the excessive proliferation of cancer cells. By inducing cell cycle arrest, these agents disrupt the normal progression of the cell cycle, preventing cancer cells from dividing and multiplying uncontrollably. This therapeutic strategy helps to halt tumor growth and promotes the effectiveness of cancer treatments. The observed effects of compound 7 on the cell cycle profile of HepG-2 cells are indicative of its potential as an antitumor agent. […] Furthermore, the increase in the percentage of cells in the S phase upon treatment with Compound 7 may indicate DNA damage and activation of DNA repair mechanisms, which can contribute to the observed S phase arrest.
HepG-2 cells were seeded in […] at a density of 3.0 × 10^5 cells per well and incubated at 37°C for 12 h to allow cell attachment and growth. After the initial incubation, the cells were treated with compound 7 at its IC50 concentration dose value for 24 h. […] Flow cytometry analysis measures the fluorescence emitted by the cells stained with PI, which correlates with the DNA content. […]

HepG-2 cells [2] = assay: Annexin V-FITC/PI apoptosis assay; format: cell-based, human
Experimental: The Annexin V-FITC/PI assay is a well-established flow cytometric method to evaluate the apoptotic potential of bioactive compounds. The assay allows differentiation between apoptotic cells and live cells by using fluorescent dyes that bind to phosphatidylserine (PS) and DNA, respectively ([Galluzzi et al., 2018]; [Pfeffer and Singh, 2018]; [Tong et al., 2022]). In the present study, the assay was performed to explore the apoptotic effect of compound 7 (at its IC50 dose value) on HepG-2 cells. […] The Annexin V-FITC/PI assay is a well-established method to evaluate the apoptotic potential of chemical compounds. Inducing apoptosis is an appealing therapeutic approach for cancer treatment as it is a vital cellular process essential for preserving tissue balance and removing impaired or unnecessary cells. Disruption in the regulation of apoptosis can contribute to various diseases, such as cancer, highlighting its significance. […] The early stage of apoptosis is characterized by the translocation of PS from the inner to the outer leaflet of the plasma membrane, which can be detected by Annexin V-FITC staining. […] Further, the late stage of apoptosis is characterized by DNA fragmentation, which can be detected by PI staining. […] According to these findings, there is a notable connection between the ability of compound 7 to induce programmed cell death in HepG-2 cells and its antiproliferative effects.
The experimental method involved seeding HepG-2 cells at a density of 1.5 × 10^5 cells per well in a 6-well plate and incubating the cells for 12 h to allow for cell attachment and growth. Following this, the cells were treated with compound 7 at its IC50 concentration for 24 h to induce apoptosis. Apoptosis, a programmed cell death process, was detected by staining the cells with Annexin-V conjugated to fluorescein isothiocyanate (FITC) and Propidium Iodide (PI), and the stained cells were analyzed using a FACSCalibur cytometer and Cellquest software (BD Bioscience). Annexin-V is a protein that binds specifically to phosphatidylserine, a phospholipid that is externalized on the outer surface of the plasma membrane during early stages of apoptosis. FITC, a green-fluorescent dye conjugated to Annexin-V, is used to label the apoptotic cells. PI, a red-fluorescent DNA intercalating agent, is used to distinguish between apoptotic and necrotic cells based on their DNA content. The FACSCalibur cytometer is a flow cytometer used to analyze and quantify fluorescently labeled cells. The experimental method likely allowed for the quantification of apoptotic cells by analyzing the Annexin-V-FITC and PI staining patterns using flow cytometry. The results obtained from this method provided information on the induction of apoptosis by compound 7 in HepG-2 cells, further elucidating the mechanism of action of this compound as a potential anticancer agent. To ensure the reliability of the results, the experimental conditions were repeated at least three times, and the cells were exposed to therapeutically effective concentration of the compound, they were treated with compound 7 at a dose corresponding to its IC50 concentration. This ensured that the cells were subjected to an optimal concentration of the compound during the experiment. This experimental method yielded crucial information on the mechanism by which it exerts its anticancer effects.

[3] = tested on: human liver carcinoma HepG2 cell line; assay: MTT cytotoxicity assay on liver cancer cells; format: cell-based; details: 24 h treatment
Experimental: Toward this, the HepG-2 cells were cultured and treated with tested compounds at different concentrations for 24 h and subsequently 3-(4,5-dimethylthiazol-2-yl)-2,5-diphenyltetrazolium bromide (MTT) dye was added. The colorimetric measurement was assessed using an ELISA plate reader at a wavelength of 570 nm.
Following this initial incubation period, the cells were exposed to varying concentrations of the synthesized compounds. The concentrations may have ranged from a lower to higher dose, depending on the experimental design. The molecules were dissolved in an appropriate solvent, DMSO, to obtain the desired concentrations. Control wells with no drug treatment were also included. […] The duration of the incubation may have varied depending on the specific experimental requirements. At the end of the 24-h treatment, (3-(4,5-dimethylthiazol-2-yl)-2,5-diphenyltetrazolium bromide) MTT dye was added to each well. MTT is a yellow tetrazolium salt that is utilized by metabolically active cells and converted into purple formazan crystals by mitochondrial enzymes in viable cells. […] DMSO is a common solvent used to dissolve the formazan crystals and extract the intracellular purple product. The plate was then subjected to colorimetric measurement using an ELISA plate reader at a wavelength of 570 nm. The intensity of the purple color is proportional to the number of viable cells and reflects the growth condition of the cells in each well. The results were analyzed by calculating the percentage of cell viability or cell growth inhibition compared to the control wells. […] The experiments were performed with at least three replicates for each concentration, and the entire experiment was repeated at least three times to ensure the reliability of the results.

HepG-2 cells [4] = tested on: HepG-2 cells; design: method as in Fayed et al., 2019; details: ref Fayed et al., 2019; read-out: IC50, cytotoxic activity against HepG-2 cells; cited from earlier work

Sequence of CYP2D6 (P10635 whole entry): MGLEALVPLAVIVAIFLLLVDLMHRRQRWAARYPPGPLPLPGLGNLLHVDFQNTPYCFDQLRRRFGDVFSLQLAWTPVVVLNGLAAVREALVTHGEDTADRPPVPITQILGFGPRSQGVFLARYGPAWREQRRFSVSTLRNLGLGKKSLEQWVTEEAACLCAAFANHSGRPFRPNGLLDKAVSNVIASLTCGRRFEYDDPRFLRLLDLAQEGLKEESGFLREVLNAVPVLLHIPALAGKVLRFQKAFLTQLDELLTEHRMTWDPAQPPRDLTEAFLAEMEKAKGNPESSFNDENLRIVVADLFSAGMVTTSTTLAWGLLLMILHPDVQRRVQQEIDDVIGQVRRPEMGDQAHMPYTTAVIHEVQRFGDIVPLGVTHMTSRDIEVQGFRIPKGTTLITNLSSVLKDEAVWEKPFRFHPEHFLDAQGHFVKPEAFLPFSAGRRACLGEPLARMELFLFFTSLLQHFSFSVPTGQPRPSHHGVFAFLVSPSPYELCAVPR

Structure (SMILES): COc1cccc2cc(C(=O)Nc3cccc(O)c3)c(=O)[nH]c12 [Compound 7, N-(3-hydroxy)phenyl 8-methoxy-azacoumarin-3-carboxamide]
- IC50 (CYP2D6): 110 µM
- fold more potent than standard staurosporin toward CYP2D6 (CYP2D6): 2.1 fold
- VEGFR2 protein level (VEGFR-2; Hep-G2 cells, untreated 3,007 pg/mL): 1,086 pg/mL
- IC50 (VEGFR-2; summary graph, read-out: Angiogensis inhibtion IC50 (Figure 10) (converted)): 110 µM
- IC50 (HL-7702 normal cell line): 13.7 ± 1.8 µM
- percentage of cells in the G2/M phase (HepG-2 cells [1]; untreated control 11.46%): 6.4%
- percentage of cells in the S phase (HepG-2 cells [1]; untreated control 42.19%): 54.52%
- percentage of cells in the G1 phase (HepG-2 cells [1]; untreated control 46.35%): 39.08%
- fold increase of early apoptotic cells vs control (HepG-2 cells [2]; HepG-2, compound at IC50): 45 fold
- fold increase of late apoptotic cells vs control (HepG-2 cells [2]; HepG-2, compound at IC50): 73 fold
- fold increase of necrosis vs control (HepG-2 cells [2]; HepG-2, compound at IC50): 2.5 fold
- fold increase of total apoptotic cells vs control (HepG-2 cells [2]; HepG-2, compound at IC50): 23 fold
- percentage of apoptotic cells, late stage (HepG-2 cells [2]; HepG-2, compound at IC50 (0.75 µM), 24 h, control 0.21%): 15.34%
- percentage of apoptotic cells, early stage (HepG-2 cells [2]; HepG-2, compound at IC50 (0.75 µM), 24 h, control 0.55%): 24.72%
- IC50 [3]: 0.75 ± 0.03 µM

Structure (SMILES): COc1ccc(Br)c2cc(C(=O)Nc3cccc(OC(C)=O)c3)c(=O)oc12 [Compound 6, N-(3-acetoxy)phenyl 5-bromo-8-methoxycoumarin-3-carboxamide]
- melting point: 205 °C
- IC50 [3]: 13.4 ± 0.56 µM

Structure (SMILES): COc1ccc(Br)c2cc(C(=O)Nc3cccc(O)c3)c(=O)[nH]c12 [Compound 8, N-(3-hydroxy)phenyl 5-bromo-8-methoxy-azacoumarin-3-carboxamide]
- melting point: 255 °C
- IC50 [3]: 4.79 ± 0.2 µM

Structure (SMILES): COc1ccc(Br)c2cc(C(=O)Nc3cccc(O)c3)c(=O)oc12 [Compound 4, N-(3-hydroxy)phenyl 5-bromo-8-methoxycoumarin-3-carboxamide]
- melting point: 289 °C
- IC50 [3]: 38.3 ± 1.62 µM

Structure (SMILES): COc1cccc2cc(C(=O)Nc3cccc(O)c3)c(=O)oc12 [Compound 3, N-(3-hydroxy)-phenyl 8-methoxycoumarin-3-carboxamide]
- melting point: 256 °C
- IC50 [3]: 3.81 ± 0.16 µM

Structure (SMILES): CN[C@@H]1C[C@H]2O[C@@](C)([C@@H]1OC)n1c3ccccc3c3c4c(c5c6ccccc6n2c5c31)C(=O)NC4 [STU, staurosporine, reference compound]
- IC50 (CYP2D6; human): 70.3 µg/mL

Structure (SMILES): COc1ccc(-c2cc(-c3cc4ccccc4oc3=O)nc(NC(C)=O)c2C#N)cc1 [Compound 11]
- IC50 (HepG-2 cells [4]): 4.5 µM
